Source: the supplement of paper PMC11208160

Assay: recombinant barcode read abundance after kanamycin selection (control-corrected) (log10(CPM+1)); higher = more efficient recombination; sequences stand for … in AGTGCAGAGAAAATCGGCCAGTTTTCTCTGCCTGCAGTCCGCATGCCGT…ATTTATGCAGCGGACTGCCTTTCTCCCAAAGTGATAAACCGGACAGTATCATGGACCGGTTTTCCCGGTAATCCGTATTTGCAAGGTTGGTTTCACT; site = the 11-nt target
Method in brief: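 Recombination efficiency draws on barcodes counted at recombinant junctions in a pooled E. coli screen of targets paired with IS621 bridge RNA target-binding loops. The counts were converted to counts per million, averaged and corrected against the chloramphenicol/ampicillin LB agar control, then reported as log10(CPM+1). Selection plates held chloramphenicol/ampicillin/kanamycin with 0.1 mM IPTG, with two replicates per condition.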

Sequence | recombinant barcode read abundance (log10)
GCGGGACCTTGGGTTCTAACCTGTTGCCTTA [GCGGGACCTAG_LTGcore_CT_RTGcore_TA] (site GCGGGACCTAG) (LTG core: CT, RTG core: TA) | 1.18
GCGGGACCTTGGGTTCTAACCTGTTGCCTTC [GCGGGACCTAG_LTGcore_CT_RTGcore_GA] (site GCGGGACCTAG) (LTG core: CT, RTG core: GA) | 1.19
GCGGGACGTTGGGTTCTAACCTGTTGCCTAC [GCGGGACCTAG_LTGcore_GT_RTGcore_GT] (site GCGGGACCTAG) (LTG core: GT, RTG core: GT) | 0.163
GCGGGACTTTGGGTTCTAACCTGTTGCCTAG [GCGGGACCTAG_LTGcore_TT_RTGcore_CT] (site GCGGGACCTAG) (LTG core: TT, RTG core: CT) | 0.13
GGACACCATTGGGTTCTAACCTGTTGCCTAG [GGACACCCTAG_LTGcore_AT_RTGcore_CT] (site GGACACCCTAG) (LTG core: AT, RTG core: CT) | 0.15
GGACACCATTGGGTTCTAACCTGTTGCCTAT [GGACACCCTAG_LTGcore_AT_RTGcore_AT] (site GGACACCCTAG) (LTG core: AT, RTG core: AT) | 0.145
GGACACCCTTGGGTTCTAACCTGTTGCCTAA [GGACACCCTAG_LTGcore_CT_RTGcore_TT] (site GGACACCCTAG) (LTG core: CT, RTG core: TT) | 1.19
GGACACCCTTGGGTTCTAACCTGTTGCCTCC [GGACACCCTAG_LTGcore_CT_RTGcore_GG] (site GGACACCCTAG) (LTG core: CT, RTG core: GG) | 0.904
GGACACCCTTGGGTTCTAACCTGTTGCCTCT [GGACACCCTAG_LTGcore_CT_RTGcore_AG] (site GGACACCCTAG) (LTG core: CT, RTG core: AG) | 0.545
GGACACCCTTGGGTTCTAACCTGTTGCCTGG [GGACACCCTAG_LTGcore_CT_RTGcore_CC] (site GGACACCCTAG) (LTG core: CT, RTG core: CC) | 0.503
GGACACCCTTGGGTTCTAACCTGTTGCCTTA [GGACACCCTAG_LTGcore_CT_RTGcore_TA] (site GGACACCCTAG) (LTG core: CT, RTG core: TA) | 1.36
GGACACCCTTGGGTTCTAACCTGTTGCCTTT [GGACACCCTAG_LTGcore_CT_RTGcore_AA] (site GGACACCCTAG) (LTG core: CT, RTG core: AA) | 1.04
GGACACCGCTGGGTTCTAACCTGTTGCCTGC [GGACACCCTAG_LTGcore_GC_RTGcore_GC] (site GGACACCCTAG) (LTG core: GC, RTG core: GC) | 0.0534
GGACACCGGTGGGTTCTAACCTGTTGCCTCC [GGACACCCTAG_LTGcore_GG_RTGcore_GG] (site GGACACCCTAG) (LTG core: GG, RTG core: GG) | 0.0801
GGACACCGTTGGGTTCTAACCTGTTGCCTAC [GGACACCCTAG_LTGcore_GT_RTGcore_GT] (site GGACACCCTAG) (LTG core: GT, RTG core: GT) | 0.944
GGACACCTATGGGTTCTAACCTGTTGCCTAG [GGACACCCTAG_LTGcore_TA_RTGcore_CT] (site GGACACCCTAG) (LTG core: TA, RTG core: CT) | 0.094

Sequence | recombinant barcode read abundance (log10)
GGACACCTATGGGTTCTAACCTGTTGCCTTA [GGACACCCTAG_LTGcore_TA_RTGcore_TA] (site GGACACCCTAG) (LTG core: TA, RTG core: TA) | 0
GGCTCCCAATGGGTTCTAACCTGTTGCGGTT [GGCTCCCCTCC_LTGcore_AA_RTGcore_AA] (site GGCTCCCCTCC) (LTG core: AA, RTG core: AA) | 0.102
GGCTCCCCATGGGTTCTAACCTGTTGCGGAG [GGCTCCCCTCC_LTGcore_CA_RTGcore_CT] (site GGCTCCCCTCC) (LTG core: CA, RTG core: CT) | 0.0917
GGCTCCCCTTGGGTTCTAACCTGTTGCGGAT [GGCTCCCCTCC_LTGcore_CT_RTGcore_AT] (site GGCTCCCCTCC) (LTG core: CT, RTG core: AT) | 0.0958
GGCTCCCCTTGGGTTCTAACCTGTTGCGGCC [GGCTCCCCTCC_LTGcore_CT_RTGcore_GG] (site GGCTCCCCTCC) (LTG core: CT, RTG core: GG) | 0.131
GGCTCCCCTTGGGTTCTAACCTGTTGCGGTA [GGCTCCCCTCC_LTGcore_CT_RTGcore_TA] (site GGCTCCCCTCC) (LTG core: CT, RTG core: TA) | 0.101
GGCTCCCCTTGGGTTCTAACCTGTTGCGGTC [GGCTCCCCTCC_LTGcore_CT_RTGcore_GA] (site GGCTCCCCTCC) (LTG core: CT, RTG core: GA) | 0.0253
GGCTCCCCTTGGGTTCTAACCTGTTGCGGTG [GGCTCCCCTCC_LTGcore_CT_RTGcore_CA] (site GGCTCCCCTCC) (LTG core: CT, RTG core: CA) | 0.251
GGCTCCCGGTGGGTTCTAACCTGTTGCGGCC [GGCTCCCCTCC_LTGcore_GG_RTGcore_GG] (site GGCTCCCCTCC) (LTG core: GG, RTG core: GG) | 0.203
GGCTCCCGTTGGGTTCTAACCTGTTGCGGAC [GGCTCCCCTCC_LTGcore_GT_RTGcore_GT] (site GGCTCCCCTCC) (LTG core: GT, RTG core: GT) | 0.259
GGCTCCCTTTGGGTTCTAACCTGTTGCGGAA [GGCTCCCCTCC_LTGcore_TT_RTGcore_TT] (site GGCTCCCCTCC) (LTG core: TT, RTG core: TT) | 0.0992
GGCTCCCTTTGGGTTCTAACCTGTTGCGGAG [GGCTCCCCTCC_LTGcore_TT_RTGcore_CT] (site GGCTCCCCTCC) (LTG core: TT, RTG core: CT) | 0.0927
GGGAGCCAATGGGTTCTAACCTGTTGCTGAG [GGGAGCCCTCA_LTGcore_AA_RTGcore_CT] (site GGGAGCCCTCA) (LTG core: AA, RTG core: CT) | 0.235
GGGAGCCATTGGGTTCTAACCTGTTGCTGAT [GGGAGCCCTCA_LTGcore_AT_RTGcore_AT] (site GGGAGCCCTCA) (LTG core: AT, RTG core: AT) | 0.574
GGGAGCCCTTGGGTTCTAACCTGTTGCTGCA [GGGAGCCCTCA_LTGcore_CT_RTGcore_TG] (site GGGAGCCCTCA) (LTG core: CT, RTG core: TG) | 0.122
GGGAGCCCTTGGGTTCTAACCTGTTGCTGCG [GGGAGCCCTCA_LTGcore_CT_RTGcore_CG] (site GGGAGCCCTCA) (LTG core: CT, RTG core: CG) | 0.147
